Measurements as given in patent publication US12643887B2, “Heterocyclic derivatives with cardiomyocyte proliferation activity for treatment of heart diseases” (Tongji University, priority 2019, dated 2026).

Experiments:
human CLK1 = biological target: T1, human CLK1 (Homo sapiens, UniProt P49759); assay: CLK1 enzyme assay (ADP-Glo); format: biochemical; conditions: ADP-Glo, ATP 10 μM; read-out: CLK1 IC50
T1 construct: Recombinant human CLK1 (129-end); GST (N); purchased SignalChem C57-11G; host or cells: Sf9 insect cells
Protocol: The ability of compounds to inhibit human CLK1 kinase activities was determined using a commercially available ADP-Glo™ Kinase Assay kit (Promega, Cat #V9102) according to the manufacturer's protocol.
(§1) Recombinant human CLK1 (129-end) (expressed in Sf9 insect cells with an N-terminal GST tag) was purchased from SignalChem (Cat #C57-11G). Recombinant full length human MBP (expressed in E. Coli cells with an N-terminal GST tag.) was purchased from SignalChem (Cat #M42-54G). This assay, run in a 384-well plate format, is a generic method for measuring kinase activities using an ADP-Glo Kinase Assay Kit. The basic assay procedure involves two steps: (1) Enzymatic step: inhibitors are incubated with the kinase and then ATP (included in the ADP-Glo Kinase Assay Kit) and the MBP protein are added to start the enzymatic reaction; (2) Detection step: after the kinase reaction, first ADP-Glo™ Reagent is added to terminate the kinase reaction and deplete the remaining ATP. Second, the Kinase Detection Reagent is added to simultaneously convert ADP to ATP and allow the newly synthesized ATP to be measured using a luciferase/luciferin reaction. The light generated is measured using a luminometer.
(§2) Briefly, CLK1 (16 nM) in the enzymatic buffer solutions (40 mM Tris, pH 7.5, 20 mM MgCl2, 0.1 mg/ml BSA, 50 μM DTT) were mixed with various concentrations of inhibitors (dissolved in 100% DMSO). These solutions were incubated for 30 minutes at 25° C., and subsequently a mixture of substrate peptide and ATP was added with the final peptide and ATP concentrations at 2 μM and 10 μM, respectively. The final reaction mixture of enzyme-substrate-ATP-compound was incubated for 60 minutes at 25° C.
Afterwards ADP-Glo™ Reagent was added and the mixture was incubated at 25° C. for 60 minutes. Then Kinase Detection Reagent was added and the final mixture was incubated at 25° C. for 60 minutes. The luminescence signal of the final solution was measured on an Envision instrument (PerkinElmer). The percent (%) inhibition at each concentration of a compound is calculated relative to the luminescence signal in the Max and Min control wells contained within each assay plate. […] The concentrations and percent inhibition values for a test compound are plotted and the concentration of the compound required to achieve 50% inhibition (IC50) is determined with a four-parameter logistic dose response equation.

human HIPK2 = biological target: T2, human HIPK2 (Homo sapiens, UniProt Q9H2X6); assay: HIPK2 enzyme assay (ADP-Glo); format: biochemical; conditions: ADP-Glo, ATP 5 μM; read-out: HIPK2 IC50
T2 construct: Recombinant human HIPK2 (1-640); GST (N); purchased SignalChem H04-11BG; host or cells: Sf9 insect cells
Protocol: The ability of compounds to inhibit human HIPK2 kinase activities was determined using a commercially available ADP-Glo™ Kinase Assay kit (Promega, Cat #V9102) according to the manufacturer's protocol.
as §1, with “HIPK2 (1-640)” for “CLK1 (129-end)”, “#H04-11BG).” for “#C57-11G).”, “tag)” for “tag.)”
as §2, with “Briefly, HIPK2 (1” for “Briefly, CLK1 (16”, “at 0.05 mg/ml” for “at 2 μM”, “and 5” for “and 10”, “for 90” for “for 60”
Afterwards ADP-Glo™ Reagent was added and the mixture was incubated at 25° C. for 60 minutes. Then Kinase Detection Reagent was added, and the final mixture was incubated at 25° C. for 60 minutes. The luminescence signal of the final solution was measured on an Envision instrument (PerkinElmer). The percent (%) inhibition at each concentration of a compound is calculated relative to the luminescence signal in the Max and Min control wells contained within each assay plate. […] The concentrations and percent inhibition values for a test compound are plotted and the concentration of the compound required to achieve 50% inhibition (IC50) is determined with a four-parameter logistic dose response equation.

T2 sequence (Q9H2X6 1-640): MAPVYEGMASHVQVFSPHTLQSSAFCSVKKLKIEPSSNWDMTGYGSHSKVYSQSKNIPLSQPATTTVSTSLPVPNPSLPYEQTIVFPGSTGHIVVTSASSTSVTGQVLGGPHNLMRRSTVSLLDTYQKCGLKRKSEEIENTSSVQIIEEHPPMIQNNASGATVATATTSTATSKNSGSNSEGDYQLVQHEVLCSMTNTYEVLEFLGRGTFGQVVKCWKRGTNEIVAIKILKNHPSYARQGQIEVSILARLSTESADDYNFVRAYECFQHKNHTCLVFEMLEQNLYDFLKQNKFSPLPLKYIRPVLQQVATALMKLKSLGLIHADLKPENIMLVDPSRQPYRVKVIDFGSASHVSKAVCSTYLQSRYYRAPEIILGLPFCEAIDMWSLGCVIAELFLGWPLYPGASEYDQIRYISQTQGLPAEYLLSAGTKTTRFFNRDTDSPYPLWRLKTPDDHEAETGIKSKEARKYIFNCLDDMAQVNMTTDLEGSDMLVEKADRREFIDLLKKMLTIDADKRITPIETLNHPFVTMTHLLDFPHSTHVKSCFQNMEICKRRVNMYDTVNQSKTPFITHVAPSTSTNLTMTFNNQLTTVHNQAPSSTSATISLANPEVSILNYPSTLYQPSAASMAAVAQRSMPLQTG
T1 sequence (P49759 129-484 limits assumed): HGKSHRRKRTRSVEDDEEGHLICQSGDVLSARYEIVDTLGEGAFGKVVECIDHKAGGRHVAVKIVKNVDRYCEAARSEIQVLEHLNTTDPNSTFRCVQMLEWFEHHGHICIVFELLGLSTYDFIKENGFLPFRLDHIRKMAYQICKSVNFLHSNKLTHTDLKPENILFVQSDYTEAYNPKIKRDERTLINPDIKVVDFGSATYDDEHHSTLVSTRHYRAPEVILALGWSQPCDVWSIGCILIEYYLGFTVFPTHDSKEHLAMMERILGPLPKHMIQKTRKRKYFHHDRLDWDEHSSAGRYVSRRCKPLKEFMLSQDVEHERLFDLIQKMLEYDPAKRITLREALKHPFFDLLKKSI

SMILES | IC50 (human CLK1) [nM] | IC50 (human HIPK2) [nM]
COc1ccc(NC2=N/C(=C\c3ccc4ncsc4c3)C(=O)N2)cc1 [Example 25, (Z)-5-(benzo[d]thiazol-6-ylmethylene)-2-((4-methoxyphenyl)amino)-3,5-dihydro-4H-imidazol-4-one] | < 100 | 100 to 1000
O=C1NC(Nc2ccccc2)=N/C1=C\c1ccc2[nH]cnc2c1 [Example 26, (Z)-5-((1H-benzo[d]imidazol-5-yl)methylene)-2-(phenylamino)-3,5-dihydro-4H-imidazol-4-one] | < 100 | 100 to 1000
O=C(O)CCN(C1=N/C(=C\c2ccc3c(c2)OCO3)C(=O)N1)c1ccccc1 [Example 27, (Z)-3-((4-(benzo[d][1,3]dioxol-5-ylmethylene)-5-oxo-4,5-dihydro-1H-imidazol-2-yl)(phenyl)amino)propanoic acid] | 1000 to 10000 | 1000 to 10000
CN(Cc1ccccc1)C1=N/C(=C\c2ccc3ncsc3c2)C(=O)N1 [Example 28, (Z)-5-(benzo[d]thiazol-6-ylmethylene)-2-(benzyl(methyl)amino)-3,5-dihydro-4H-imidazol-4-one] | 100 to 1000 | 1000 to 10000
O=C1NC(NCCN2CCOCC2)=N/C1=C\c1ccc2ncsc2c1 [Example 29, (Z)-5-(benzo[d]thiazol-6-ylmethylene)-2-((2-morpholinoethyl)amino)-3,5-dihydro-4H-imidazol-4-one] | 100 to 1000 | 1000 to 10000
CN(C1=N/C(=C\c2ccc3[nH]cnc3c2)C(=O)N1)c1ccccc1 [Example 30, (Z)-5-((1H-benzo[d]imidazol-5-yl)methylene)-2-(methyl(phenyl)amino)-3,5-dihydro-4H-imidazol-4-one] | 100 to 1000 | > 10000
NC(=O)CCN(C1=N/C(=C\c2ccc3c(c2)OCO3)C(=O)N1)c1ccccc1 [Example 36, (Z)-3-((4-(benzo[d][1,3]dioxol-5-ylmethylene)-5-oxo-4,5-dihydro-1H-imidazol-2-yl)(phenyl)amino)propanamide] | 100 to 1000 | > 10000
CN(C1=N/C(=C\c2ccc3c(c2)OCO3)C(=O)N1)c1ccc(N)cc1 [Example 37, (Z)-2-((4-aminophenyl)(methyl)amino)-5-(benzo[d][1,3]dioxol-5-ylmethylene)-3,5-dihydro-4H-imidazol-4-one] | 1000 to 10000 | > 10000
O=C1NC(N(Cc2ccccc2)c2ccccc2)=N/C1=C\c1ccc2ncsc2c1 [Example 41, (Z)-5-(benzo[d]thiazol-6-ylmethylene)-2-(benzyl(phenyl)amino)-3,5-dihydro-4H-imidazol-4-one] | < 100 | 1000 to 10000
O=C1/C(=C/c2ccc3ncsc3c2)N=C(N(Cc2ccccc2)c2ccccc2)N1Cc1ccccc1 [Example 42, (Z)-5-(benzo[d]thiazol-6-ylmethylene)-3-benzyl-2-(benzyl(phenyl)amino)-3,5-dihydro-4H-imidazol-4-one] | > 10000 | > 10000
CC(C)NC1=N/C(=C\c2ccc3ncsc3c2)C(=O)N1C [Example 45, (Z)-5-(benzo[d]thiazol-6-ylmethylene)-2-(isopropylamino)-3-methyl-3,5-dihydro-4H-imidazol-4-one] | < 100 | 1000 to 10000
Cn1cnc2ccc(/C=C3\N=C(Nc4ccccc4)NC3=O)cc21 [Example 46, (Z)-5-((1-methyl-1H-benzo[d]imidazol-6-yl)methylene)-2-(phenylamino)-3,5-dihydro-4H-imidazol-4-one] | < 100 | 100 to 1000
CC(C)NC1=N/C(=C\c2ccc3scnc3c2)C(=O)N1 [Example 49, (Z)-5-(benzo[d]thiazol-5-ylmethylene)-2-(isopropylamino)-3,5-dihydro-4H-imidazol-4-one] | > 10000 | > 10000

The remaining lines, values ahead:

IC50 (human CLK1) [nM] | IC50 (human HIPK2) [nM] | SMILES
100 to 1000 | > 10000 | CN(CCN1CCOCC1)C1=N/C(=C\c2ccc3ncsc3c2)C(=O)N1 [Example 32, (Z)-5-(benzo[d]thiazol-6-ylmethylene)-2-(methyl(2-morpholinoethyl)amino)-3,5-dihydro-4H-imidazol-4-one]
100 to 1000 | 1000 to 10000 | CN(CC1CC1)C1=N/C(=C\c2ccc3ncsc3c2)C(=O)N1 [Example 33, (Z)-5-(benzo[d]thiazol-6-ylmethylene)-2-((cyclopropylmethyl)(methyl)amino)-3,5-dihydro-4H-imidazol-4-one]
100 to 1000 | > 10000 | O=C1NC(N(Cc2ccccc2)c2ccccc2)=N/C1=C\c1ccc2[nH]cnc2c1 [Example 35, (Z)-5-((1H-benzo[d]imidazol-5-yl)methylene)-2-(benzyl(phenyl)amino)-3,5-dihydro-4H-imidazol-4-one]
100 to 1000 | 1000 to 10000 | COc1ccc(N(C)C2=N/C(=C\c3ccc4ncsc4c3)C(=O)N2)cc1 [Example 38, (Z)-5-(benzo[d]thiazol-6-ylmethylene)-2-((4-methoxyphenyl)(methyl)amino)-3,5-dihydro-4H-imidazol-4-one]
> 10000 | > 10000 | O=C1NC(N(CC2CC2)c2ccccc2)=N/C1=C\c1ccc2c(c1)OCCO2 [Example 39, (Z)-2-((cyclopropylmethyl)(phenyl)amino)-5-((2,3-dihydrobenzo[b][1,4]dioxin-6-yl)methylene)-3,5-dihydro-4H-imidazol-4-one]
< 100 | 1000 to 10000 | O=C1NC(Nc2ccc(Cl)cc2)=N/C1=C\c1ccc2ncsc2c1 [Example 40, (Z)-5-(benzo[d]thiazol-6-ylmethylene)-2-((4-chlorophenyl)amino)-3,5-dihydro-4H-imidazol-4-one]
1000 to 10000 | > 10000 | CN(C1=N/C(=C\c2ccc3ncsc3c2)C(=O)N1)c1ccc([N+](=O)[O-])cc1 [Example 43, (Z)-5-(benzo[d]thiazol-6-ylmethylene)-2-(methyl(4-nitrophenyl)amino)-3,5-dihydro-4H-imidazol-4-one]
100 to 1000 | 1000 to 10000 | CN(C1=N/C(=C\c2ccc3ncsc3c2)C(=O)N1)c1ccc(N)cc1 [Example 44, (Z)-2-((4-aminophenyl)(methyl)amino)-5-(benzo[d]thiazol-6-ylmethylene)-3,5-dihydro-4H-imidazol-4-one]
> 10000 | > 10000 | O=C1NC(Nc2ccc3ncsc3c2)=N/C1=C\c1ccc2c(c1)OCO2 [Example 47, (Z)-5-(benzo[d][1,3]dioxol-5-ylmethylene)-2-(benzo[d]thiazol-6-ylamino)-3,5-dihydro-4H-imidazol-4-one]
< 100 | < 100 | O=C1NC(Nc2ccc3ncsc3c2)=N/C1=C\c1ccc2ncsc2c1 [Example 48, (Z)-2-(benzo[d]thiazol-6-ylamino)-5-(benzo[d]thiazol-6-ylmethylene)-3,5-dihydro-4H-imidazol-4-one]
